Measured values: US11254668B2, “Pyrazolo[1,5-A]pyrazin-4-yl and related derivatives” (Pfizer Inc., priority 2017, dated 2022)
Like-named read-outs stand apart in the source and are kept apart here.

Assays:
Format in all cases: biochemical
JAK1 = JAK1 (Homo sapiens (Human), UniProt P23458); assay: JAK Caliper Enzyme Assay at 1 mM ATP, JAK1
Outline: (§1)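 Recombinant human kinase domains phosphorylate a fluorescent synthetic peptide at 1 mM ATP, room temperature, with enzyme and time tuned for 20-30% conversion; EDTA-stopped. Product/substrate separated by microfluidic mobility shift; percent effect versus DMSO and positive controls fitted to IC50 (nM).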

JAK2 = JAK2 (Homo sapiens (Human), UniProt O60674); assay: JAK Caliper Enzyme Assay at 1 mM ATP, JAK2
Outline: (§2)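 Recombinant human kinase domains phosphorylate a fluorescent synthetic peptide at 1 mM ATP and room temperature, with enzyme level and time tuned to 20–30% conversion before an EDTA stop. Microfluidic mobility-shift separation gives percent product from peak heights. Percent effect against plate controls (DMSO baseline) is plotted versus compound concentration.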

TYK2 = TYK2 (Homo sapiens (Human), UniProt P29597); assay: JAK Caliper Enzyme Assay at 1 mM ATP, TYK2
Outline: as §2

JAK3 = JAK3 (Homo sapiens (Human), UniProt P52333); assay: JAK Caliper Enzyme Assay at 1 mM ATP, JAK3
Outline: as §1

Chain of JAK1 (P23458 875-1153): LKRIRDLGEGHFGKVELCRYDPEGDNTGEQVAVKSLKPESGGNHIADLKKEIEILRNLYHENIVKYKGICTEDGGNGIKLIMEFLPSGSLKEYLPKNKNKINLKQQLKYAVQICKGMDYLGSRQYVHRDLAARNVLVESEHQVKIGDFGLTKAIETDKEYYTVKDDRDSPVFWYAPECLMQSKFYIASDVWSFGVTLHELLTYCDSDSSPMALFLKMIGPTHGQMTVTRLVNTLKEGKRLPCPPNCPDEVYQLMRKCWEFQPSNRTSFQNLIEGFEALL
Chain of JAK2 (O60674 849-1124): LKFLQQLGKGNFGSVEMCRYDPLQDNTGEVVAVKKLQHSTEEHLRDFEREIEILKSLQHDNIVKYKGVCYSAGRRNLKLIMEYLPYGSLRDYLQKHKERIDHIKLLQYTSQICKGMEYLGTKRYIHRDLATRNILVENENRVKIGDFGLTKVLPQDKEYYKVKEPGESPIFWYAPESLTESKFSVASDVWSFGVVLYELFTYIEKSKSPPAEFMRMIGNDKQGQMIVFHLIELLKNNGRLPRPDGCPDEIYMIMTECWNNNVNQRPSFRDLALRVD
Chain of TYK2 (P29597 897-1176): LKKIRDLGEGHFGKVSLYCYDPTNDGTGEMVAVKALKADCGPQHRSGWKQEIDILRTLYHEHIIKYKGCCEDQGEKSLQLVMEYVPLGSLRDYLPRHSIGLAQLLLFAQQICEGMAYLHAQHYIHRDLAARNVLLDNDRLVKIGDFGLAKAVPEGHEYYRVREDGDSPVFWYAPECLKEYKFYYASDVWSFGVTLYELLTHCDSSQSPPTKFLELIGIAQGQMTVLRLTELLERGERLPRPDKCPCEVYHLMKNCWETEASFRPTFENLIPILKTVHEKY
Chain of JAK3 (P52333 822-1111): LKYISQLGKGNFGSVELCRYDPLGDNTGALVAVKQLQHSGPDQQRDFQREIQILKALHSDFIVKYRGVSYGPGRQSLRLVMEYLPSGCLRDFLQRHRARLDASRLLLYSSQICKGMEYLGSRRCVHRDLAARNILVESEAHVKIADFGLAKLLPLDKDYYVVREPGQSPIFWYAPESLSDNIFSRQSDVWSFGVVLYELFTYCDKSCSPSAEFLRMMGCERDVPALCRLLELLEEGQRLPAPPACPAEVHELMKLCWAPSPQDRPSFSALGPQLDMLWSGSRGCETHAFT

IC50 (JAK1; JAK Caliper enzyme assay) [nM] | IC50 (JAK2; JAK Caliper enzyme assay) [nM] | IC50 (TYK2; JAK Caliper enzyme assay) [nM] | IC50 (JAK3; JAK Caliper enzyme assay) [nM] | IC50 (JAK1) [nM] | IC50 (JAK2) [nM] | IC50 (TYK2) [nM] | IC50 (JAK3) [nM] | Compound
593 | 155 | 36 | 9480 |  |  |  |  | CC(=O)Nc1cccc(-c2cc(-c3cnn([C@]4(CC#N)C[C@@H](C#N)C4)n3)c3cccnc3c2)n1 [Example 376, N-[6-(5-{2-[trans-3-cyano-1-(cyanomethyl)cyclobutyl]-2H-1,2,3-triazol-4-yl}quinolin-7-yl)pyridin-2-yl]acetamide]
> 10000 | 5360 | 395 | > 10000 |  |  |  |  | CO[C@H]1C[C@@](CC#N)(n2cc(-c3cc(-c4cnn(C)c4)cc4nccn34)cn2)C1 [Example 460, (cis-3-methoxy-1-{4-[7-(1-methyl-1H-pyrazol-4-yl)imidazo[1,2-a]pyridin-5-yl]-1H-pyrazol-1-yl}cyclobutyl)acetonitrile]
 |  |  |  | 8820 | 6590 | 592 | > 10000 | CS(=O)(=O)N1CC(CC#N)(n2ccc(-c3nc(-c4cnn5cccnc45)cc4ncccc34)n2)C1 [Example 168, [1-(methylsulfonyl)-3-{3-[7-(pyrazolo[1,5-a]pyrimidin-3-yl)-1,6-naphthyridin-5-yl]-1H-pyrazol-1-yl}azetidin-3-yl]acetonitrile]
 |  |  |  | 404 | 92 | 20 | 3760 | N#CC[C@]1(n2ncc(-c3cc(-c4cccc(N)n4)cc4ncccc34)n2)C[C@@H](C#N)C1 [Example 358, cis-3-{4-[7-(6-aminopyridin-2-yl)quinolin-5-yl]-2H-1,2,3-triazol-2-yl}-3-(cyanomethyl)cyclobutanecarbonitrile]
 |  |  |  | 400 | 99 | 26 | > 10000 | N#CC[C@]1(n2ccc(-c3nc(-c4cc(CO)no4)cc4ncccc34)n2)C[C@@H](C#N)C1 [Example 146, cis-3-(cyanomethyl)-3-(3-{7-[3-(hydroxymethyl)-1,2-oxazol-5-yl]-1,6-naphthyridin-5-yl}-1H-pyrazol-1-yl)cyclobutanecarbonitrile]
 |  |  |  | > 10000 | > 10000 | 3390 | > 10000 | N#CC[C@]1(n2ccc(-c3nc(-c4cc(N)cnn4)cc4ncccc34)n2)C[C@H](C#N)C1 [Example 241, trans-3-{3-[7-(5-aminopyridazin-3-yl)-1,6-naphthyridin-5-yl]-1H-pyrazol-1-yl}-3-(cyanomethyl)cyclobutanecarbonitrile]
 |  |  |  | > 10000 | 9570 | 1390 | > 10000 | CCN1CC(CC#N)(n2ccc(-c3nc(C4=CCOCC4)cc4ncccc34)n2)C1 [Example 263, (3-{3-[7-(3,6-dihydro-2H-pyran-4-yl)-1,6-naphthyridin-5-yl]-1H-pyrazol-1-yl}-1-ethylazetidin-3-yl)acetonitrile]
 |  |  |  | > 10000 | 9840 | 1430 | > 10000 | Cc1cn([C@]2(CC#N)C[C@@H](C#N)C2)nc1-c1nc(-c2cc(N)n(C)n2)cc2ncccc12 [Example 278, trans-3-{3-[7-(5-amino-1-methyl-1H-pyrazol-3-yl)-1,6-naphthyridin-5-yl]-4-methyl-1H-pyrazol-1-yl}-3-(cyanomethyl)cyclobutanecarbonitrile]
 |  |  |  | 53 | 30 | 19 | 2160 | Cn1ncc(-c2cc3ncccc3c(-c3ccn([C@]4(CC#N)C[C@H](C#N)C4)n3)n2)c1N [Example 142, cis-3-{3-[7-(5-amino-1-methyl-1H-pyrazol-4-yl)-1,6-naphthyridin-5-yl]-1H-pyrazol-1-yl}-3-(cyanomethyl)cyclobutanecarbonitrile]
 |  |  |  | 563 | 133 | 16 | > 10000 | Cn1cc(-c2cc3ncccc3c(-c3ccn(C4(CC#N)CN(CC(F)(F)F)C4)n3)n2)cn1 [Example 99, [3-{3-[7-(1-methyl-1H-pyrazol-4-yl)-1,6-naphthyridin-5-yl]-1H-pyrazol-1-yl}-1-(2,2,2-trifluoroethyl)azetidin-3-yl]acetonitrile]
608 | 29 | 12 | > 10000 |  |  |  |  | CN1C(=O)COc2ccc(-c3cc(-c4cnn([C@]5(CC#N)C[C@H](C#N)C5)n4)c4cccnc4c3)nc21 [Example 425, cis-3-(cyanomethyl)-3-{4-[7-(4-methyl-3-oxo-3,4-dihydro-2H-pyrido[3,2-b][1,4]oxazin-6-yl)quinolin-5-yl]-2H-1,2,3-triazol-2-yl}cyclobutanecarbonitrile]
 |  |  |  | 2180 | 246 | 39 | > 10000 | Cn1nc(-c2cc3ncccc3c(-c3ccn([C@]4(CC#N)C[C@](C)(C#N)C4)n3)n2)cc1N [Example 67, cis-3-{3-[7-(5-amino-1-methyl-1H-pyrazol-3-yl)-1,6-naphthyridin-5-yl]-1H-pyrazol-1-yl}-3-(cyanomethyl)-1-methylcyclobutanecarbonitrile]
 |  |  |  | 4060 | 294 | 42 | > 10000 | CS(=O)(=O)N1CC(CC#N)(n2ccc(-c3nc(-c4ccn5ccnc5c4)cc4ncccc34)n2)C1 [Example 163, [3-{3-[7-(imidazo[1,2-a]pyridin-7-yl)-1,6-naphthyridin-5-yl]-1H-pyrazol-1-yl}-1-(methylsulfonyl)azetidin-3-yl]acetonitrile]
> 10000 | 6170 | 276 | > 10000 |  |  |  |  | CS(=O)(=O)N1CC(CC#N)(n2ncc(-c3cc(-c4c[nH]c(=O)[nH]c4=O)cc4ncccc34)n2)C1 [Example 414, [3-{4-[7-(2,4-dioxo-1,2,3,4-tetrahydropyrimidin-5-yl)quinolin-5-yl]-2H-1,2,3-triazol-2-yl}-1-(methylsulfonyl)azetidin-3-yl]acetonitrile]
> 10000 | > 10000 | 4840 | > 10000 |  |  |  |  | N#CC[C@]1(n2ncc(-c3cc(-c4cc(O)ncc4F)cc4ncccc34)n2)C[C@@H](C#N)C1 [Example 387, cis-3-(cyanomethyl)-3-{4-[7-(5-fluoro-2-hydroxpyridin-4-yl)quinolin-5-yl]-2H-1,2,3-triazol-2-yl}cyclobutanecarbonitrile]
> 10000 | > 10000 | 2090 | > 10000 |  |  |  |  | COc1nc(-c2cc(-c3cnn([C@]4(CC#N)C[C@@H](C#N)C4)n3)c3cccnc3c2)cnc1N [Example 408, trans-3-{4-[7-(5-amino-6-methontpyrazin-2-yl)quinolin-5-yl]-2H-1,2,3-triazol-2-yl}-3-(cyanomethyl)cyclobutanecarbonitrile]
3330 | 1480 | 506 | > 10000 |  |  |  |  | N#CC[C@]1(n2ncc(-c3cc(-c4cncc(N)n4)cc4ncccc34)n2)C[C@@H](C#N)C1 [Example 396, cis-3-{4-[7-(6-aminopyrazin-2-yl)quinolin-5-yl]-2H-1,2,3-triazol-2-yl}-3-(cyanomethyl)cyclobutanecarbonitrile]

Compound | IC50 (JAK1; JAK Caliper enzyme assay) [nM] | IC50 (JAK2; JAK Caliper enzyme assay) [nM] | IC50 (TYK2; JAK Caliper enzyme assay) [nM] | IC50 (JAK3; JAK Caliper enzyme assay) [nM] | IC50 (JAK1) [nM] | IC50 (JAK2) [nM] | IC50 (TYK2) [nM] | IC50 (JAK3) [nM]
N#CC[C@]1(n2ccc(-c3nc(-c4ccc(S(N)(=O)=O)nc4)cc4ncccc34)n2)C[C@H](C#N)C1 [Example 210, 5-(5-{1-[trans-3-cyano-1-(cyanomethyl)cyclobutyl]-1H-pyrazol-3-yl}-1,6-naphthyridin-7-yl)pyridine-2-sulfonamide] |  |  |  |  | 1530 | 300 | 62 | > 10000
